From ChEMBL document CHEMBL1201862, “PubChem BioAssay data set” (2004)
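1) Cells in 96-well plates. 2) Compound, 48 h, 5 concentrations. 3) Linear interpolation between surrounding doses. 4) Unreached endpoint = highest concentration. At the GI50, growth is halved.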 Active and inactive are the calls of the source. Cut-off read from the data, not from the text of the source: active = GI50 up to about 1.1 µM and inactive = higher.

What was measured:
Assay in all cases: NCI-60 cell line screen, 48 h
[1] = system: EKVX
[2] = system: 786-0
[3] = system: SNB-19
[4] = system: SK-MEL-2
[5] = system: MOLT-4
[6] = system: HOP-18
[7] = system: CAKI-1
[8] = system: HCT-116
[9] = system: SK-MEL-28
[10] = system: UACC-62
[11] = system: KM12
[12] = system: OVCAR-4
[13] = system: HOP-92
[14] = system: SK-MEL-5
[15] = system: SNB-75
[16] = system: SF-268
[17] = system: NCI-H226
[18] = system: NCI/ADR-RES
[19] = system: DU-145
[20] = system: T47D

SMILES | GI50 [1] | GI50 [2] | GI50 [3] | GI50 [4] | GI50 [5] | GI50 [6] | GI50 [7] | GI50 [8] | GI50 [9] | GI50 [10] | GI50 [11] | GI50 [12] | GI50 [13] | GI50 [14] | GI50 [15] | GI50 [16] | GI50 [17] | GI50 [18] | GI50 [19] | GI50 [20]
O=C1NC2=C(CCCCC/C2=N\O)C12CCCCCC2 | > 100 µM (inactive) | > 100 µM (inactive) | > 100 µM (inactive) | > 100 µM (inactive) | > 100 µM (inactive) | > 100 µM (inactive) | > 100 µM (inactive) | > 100 µM (inactive) | > 100 µM (inactive) | > 100 µM (inactive) | > 100 µM (inactive) | > 100 µM (inactive) | > 100 µM (inactive) | > 100 µM (inactive) | > 100 µM (inactive) | > 100 µM (inactive) |  |  |  | 
Cc1ccccc1Cn1nc2ccccc2cc1=O | > 100 µM (inactive) | > 100 µM (inactive) | > 100 µM (inactive) | > 100 µM (inactive) |  | > 100 µM (inactive) | > 100 µM (inactive) | > 100 µM (inactive) | > 100 µM (inactive) | > 100 µM (inactive) | > 100 µM (inactive) | > 100 µM (inactive) | > 100 µM (inactive) | > 100 µM (inactive) | 22.1 µM (inactive) | > 100 µM (inactive) | > 100 µM (inactive) |  |  | 
C#CCNC(=O)NCCCC(NC(C)=O)C(=O)NCc1ccccc1 (stereo unspecified) | > 100 µM (inactive) | > 100 µM (inactive) | > 100 µM (inactive) |  | > 100 µM (inactive) | > 100 µM (inactive) | > 100 µM (inactive) | > 100 µM (inactive) | > 100 µM (inactive) | > 100 µM (inactive) | > 100 µM (inactive) | > 100 µM (inactive) | > 100 µM (inactive) | > 100 µM (inactive) | > 100 µM (inactive) | > 100 µM (inactive) | > 100 µM (inactive) |  |  | 
COC(c1ccsc1)C(C#N)(C#N)/N=C/c1ccsc1 (stereo unspecified) | 14.2 µM (inactive) | 17.3 µM (inactive) | 23 µM (inactive) | 19 µM (inactive) | 13.9 µM (inactive) |  | 4.68 µM (inactive) | 12.8 µM (inactive) | 18.6 µM (inactive) | 15.2 µM (inactive) | 16.7 µM (inactive) | 20.9 µM (inactive) | 12 µM (inactive) | 13.6 µM (inactive) | 15.1 µM (inactive) | 16.1 µM (inactive) | 21.6 µM (inactive) | 17.7 µM (inactive) | 15.2 µM (inactive) | 13.9 µM (inactive)
COc1ccc(/C=C2\CN(C)C/C(=C\c3ccc(OC)cc3)C2=O)cc1 | > 100 µM (inactive) | 28.6 µM (inactive) | > 100 µM (inactive) | > 100 µM (inactive) | > 100 µM (inactive) |  | > 100 µM (inactive) | > 100 µM (inactive) | > 100 µM (inactive) | > 100 µM (inactive) | > 100 µM (inactive) | > 100 µM (inactive) | > 100 µM (inactive) | 32.8 µM (inactive) | > 100 µM (inactive) | > 100 µM (inactive) | > 100 µM (inactive) | > 100 µM (inactive) | > 100 µM (inactive) | > 100 µM (inactive)
CCOC(=O)C(NC(=O)c1ccccc1)(Nc1ccc(S(=O)(=O)Nc2nc(C)cc(C)n2)cc1)C(F)(F)F (stereo unspecified) | > 100 µM (inactive) | > 100 µM (inactive) | > 100 µM (inactive) | > 100 µM (inactive) | > 100 µM (inactive) |  | > 100 µM (inactive) | > 100 µM (inactive) | > 100 µM (inactive) | > 100 µM (inactive) | > 100 µM (inactive) | > 100 µM (inactive) | > 100 µM (inactive) | > 100 µM (inactive) | > 100 µM (inactive) | > 100 µM (inactive) | > 100 µM (inactive) | > 100 µM (inactive) | > 100 µM (inactive) | > 100 µM (inactive)
NC(=O)NC(CC(=O)O)C(=O)O (stereo unspecified) | > 100 µM (inactive) | > 100 µM (inactive) | > 100 µM (inactive) | > 100 µM (inactive) | > 100 µM (inactive) |  | > 100 µM (inactive) | > 100 µM (inactive) | > 100 µM (inactive) | > 100 µM (inactive) | > 100 µM (inactive) | > 100 µM (inactive) | > 100 µM (inactive) | > 100 µM (inactive) | > 100 µM (inactive) | > 100 µM (inactive) | > 100 µM (inactive) | > 100 µM (inactive) | > 100 µM (inactive) | > 100 µM (inactive)
CCCC(=O)Nc1ccc(O)c2c1C1CCCCCC21 (stereo unspecified) | > 100 µM (inactive) | > 100 µM (inactive) | > 100 µM (inactive) | > 100 µM (inactive) | 56.9 µM (inactive) | > 100 µM (inactive) |  | 85.3 µM (inactive) | > 100 µM (inactive) | 64 µM (inactive) | 96.4 µM (inactive) | 68.5 µM (inactive) |  | 72.4 µM (inactive) | 72.3 µM (inactive) | > 100 µM (inactive) | > 100 µM (inactive) |  |  | 
CCOC(=O)C(OCC1CC=CCC1)Sc1ccccc1 (stereo unspecified) | > 100 µM (inactive) | > 100 µM (inactive) | > 100 µM (inactive) | > 100 µM (inactive) |  | > 100 µM (inactive) | > 100 µM (inactive) | > 100 µM (inactive) | > 100 µM (inactive) | > 100 µM (inactive) | > 100 µM (inactive) |  | > 100 µM (inactive) | > 100 µM (inactive) | > 100 µM (inactive) | > 100 µM (inactive) |  |  |  | 
COC(=O)CCC(=O)NC1=C(Nc2ccc(OC)cc2)C(=O)c2ccccc2C1=O | 17.7 µM (inactive) | 17.9 µM (inactive) | 17.8 µM (inactive) | 6.3 µM (inactive) | 15.7 µM (inactive) |  | 16.9 µM (inactive) | 6.58 µM (inactive) | 17.2 µM (inactive) | 3.16 µM (inactive) | 14.3 µM (inactive) | 11.8 µM (inactive) | 8.69 µM (inactive) | 1.83 µM (inactive) | 2.52 µM (inactive) | 18.9 µM (inactive) | 17.7 µM (inactive) | 16.3 µM (inactive) | 14 µM (inactive) | 14.6 µM (inactive)
Cc1c(-c2ccccc2)oc(=O)c2ccccc12 | 18.5 µM (inactive) | 24.2 µM (inactive) | 30.7 µM (inactive) | 20.4 µM (inactive) | 11 µM (inactive) |  | 22.4 µM (inactive) | 24.6 µM (inactive) | 19.4 µM (inactive) | 16.9 µM (inactive) | 23.4 µM (inactive) | 17.5 µM (inactive) | 11.8 µM (inactive) | 18.5 µM (inactive) | 12.4 µM (inactive) | 17.4 µM (inactive) | 17.5 µM (inactive) | 28.4 µM (inactive) | 37.7 µM (inactive) | 30.5 µM (inactive)
COc1cc2ncnc(Nc3cccc(Cl)c3)c2cc1OC [TYRPHOSTIN AG-1478] | 0.392 µM (active) | 6.28 µM (inactive) | 21 µM (inactive) | 9.27 µM (inactive) | 16.4 µM (inactive) |  | 0.248 µM (active) | 17.6 µM (inactive) | 9.38 µM (inactive) | 7.14 µM (inactive) | 5.73 µM (inactive) | 18.1 µM (inactive) | 5.19 µM (inactive) | 6.1 µM (inactive) | 2.57 µM (inactive) | 4.67 µM (inactive) | 2.4 µM (inactive) | 3.63 µM (inactive) | 1.89 µM (inactive) | 9.55 µM (inactive)
O=[N+]([O-])c1ccc2c3c1[C@H]1O[C@H]1c1cccc(c1-3)[C@@H]1O[C@H]21 | 2.03 µM (inactive) | 1.96 µM (inactive) | 3.54 µM (inactive) | 2.52 µM (inactive) | 3.01 µM (inactive) |  | 1.99 µM (inactive) | 1.81 µM (inactive) | 2.28 µM (inactive) | 1.86 µM (inactive) | 2.35 µM (inactive) | 2.12 µM (inactive) | 2.18 µM (inactive) | 3.02 µM (inactive) | 1.97 µM (inactive) | 1.98 µM (inactive) | 45.9 µM (inactive) | 2.41 µM (inactive) | 2.33 µM (inactive) | 2.08 µM (inactive)
COC1CCC(OS(C)(=O)=O)C(C)O1 (stereo unspecified) | > 10 µM (inactive) | > 10 µM (inactive) | > 10 µM (inactive) | > 10 µM (inactive) | > 10 µM (inactive) |  | > 10 µM (inactive) | > 10 µM (inactive) | > 10 µM (inactive) | > 10 µM (inactive) | > 10 µM (inactive) | > 10 µM (inactive) | 5.89 µM (inactive) | > 10 µM (inactive) | > 10 µM (inactive) | > 10 µM (inactive) | > 10 µM (inactive) | > 10 µM (inactive) | > 10 µM (inactive) | > 10 µM (inactive)
OCCCSCCO | > 100 µM (inactive) | > 100 µM (inactive) | > 100 µM (inactive) | > 100 µM (inactive) | > 100 µM (inactive) |  | > 100 µM (inactive) | > 100 µM (inactive) | > 100 µM (inactive) | > 100 µM (inactive) | > 100 µM (inactive) | > 100 µM (inactive) | > 100 µM (inactive) | > 100 µM (inactive) | > 100 µM (inactive) | > 100 µM (inactive) | > 100 µM (inactive) | > 100 µM (inactive) | > 100 µM (inactive) | > 100 µM (inactive)
O=C1CCSc2nc(-c3ccc4c(c3)OCO4)nn21 | > 10 µM (inactive) | > 10 µM (inactive) | > 10 µM (inactive) | > 10 µM (inactive) | > 10 µM (inactive) |  | > 10 µM (inactive) | > 10 µM (inactive) | > 10 µM (inactive) | > 10 µM (inactive) | > 10 µM (inactive) | > 10 µM (inactive) | > 10 µM (inactive) | > 10 µM (inactive) | > 10 µM (inactive) | > 10 µM (inactive) | > 10 µM (inactive) | > 10 µM (inactive) | > 10 µM (inactive) | > 10 µM (inactive)
